Values belong to the molecule of their own block, whether it stands above or below them.
Test system: Helicobacter pylori
Test: activity against Helicobacter pylori (MIC), modified method of Iwahi et al., Columbia agar, growth period of 4 days
Type: cell-based
Details: Columbia agar (Oxoid); for MIC: Helicobacter pylori, 96 h
Protocol: The compounds of the formula I were tested for their activity against Helicobacter pylori following a modification of the method described by Tomoyuki Iwahi et al. (Antimicrobial Agents and Chemotherapy, 1991, 490-496) using Columbia agar (Oxoid) over a growth period of 4 days. The MIC values listed in Table 2 below were found here for the tested compounds (the compound numbers shown agree with the compound numbers in the description).

Compound: Cc1c(SCc2ccsc2)ccnc1CSc1nc2ccccc2[nH]1 [Compound 6, 2-{[[3-Methyl-4-(3-thienylmethylthio)-2-pyridinyl]methyl]thio}-1H-benzimidazole]
- MIC: ≤ 1 µg/mL

Compound: COc1ccnc(CSc2ccnc(CSc3nc4ccccc4[nH]3)c2C)c1OC [Compound 16, 2-{[[4-3,4-Dimethoxy-2-pyridinylmethylthiol-3-methyl-2-pyridinyl]methyl]thio}-1H-benzimidazole]
- MIC: ≤ 1 µg/mL

Compound: Cc1c(SCCCn2ccnc2C)ccnc1CSc1nc2ccccc2[nH]1 [Compound 19, 2-{[[4-[3-(2-Methylimidazol-1-yl)propylthio]-3-methyl-2-pyridinyl]methyl]thio}-1H-benzimidazole]
- MIC: ≤ 1 µg/mL

Compound: Cc1c(SCCc2ccccn2)ccnc1CSc1nc2ccccc2[nH]1 [Compound 17]
- MIC Value: ≤ 1.0 µg/mL

Compound: c1csc(CSc2ccnc(CSc3nc4ccccc4[nH]3)c2)c1 [Compound 8, 2-{[[4-(2-Thienylmethylthio)-2,pyridinyl]methyl]thio}-1H-benzimidazole]
- MIC: ≤ 1 µg/mL

Compound: Cc1c(SCc2ccco2)ccnc1C[S+]([O-])c1nc2ccccc2[nH]1 (centres unmarked) [Compound 20, 2-{[[4-(2-Furylmethylthio)-3-methyl-2-pyridinyl]methyl]sulfinyl}-1H-benzimidazole]
- MIC: ≤ 1 µg/mL

Compound: Cc1c(SCCCn2ccnc2)ccnc1CSc1nc2ccccc2[nH]1 [Compound 18, 2-{[[-4-[3-(Imidazol-1-yl)propylthio]-3-methyl-2-pyridinyl]methyl]thio}-1H-benzimidazole]
- MIC: ≤ 1 µg/mL

The next lines start with the values.

- MIC: ≤ 1 µg/mL
Compound: Cc1c(SCc2cccs2)ccnc1CSc1nc2ccccc2[nH]1 [Compound 5, 2-{[[3-Methyl-4-(2-thienylmethylthio)-2-pyridinyl]methyl]thio}-1H-benzimidazole]

- MIC: ≤ 1 µg/mL
Compound: COc1c(SCc2ccco2)ccnc1CSc1nc2ccccc2[nH]1 [Compound 2, 2-{[[4-(2-Furylmethylthio)-3-methoxy-2-pyridinyl]methyl]thio}-1H-benzimidazole]

- MIC: ≤ 1 µg/mL
Compound: Cc1c(SCc2ccco2)ccnc1CSc1nc2ccccc2[nH]1 [Compound 1, 2-{[[4-(2-Furylmethylthio)-3-methyl,2-pyridinyl]methyl]thio}-1H-benzimidazole]

- MIC: ≤ 1 µg/mL
Compound: Cc1c(SCc2ccco2)ccnc1CSc1nc2ccccc2[nH]1.Cl.Cl [Compound 12, 2-{[[4-(2-Furylmethylthio)-3-methyl-2-pyridinyl]methyl]thio}-1H-benzimidazole dihydrochloride]

— patent publication US5587389A, “Substituted heteroarylaklylthiopyridines for controlling helicobacter bacteria” (BYK Gulden Lomberg Chemische Fabrik GmbH, priority 1993, dated 1996)
